Measured values taken from patent US10485795B2, “FXR (NR1H4) binding and activity modulating compounds” (Gilead Sciences, Inc., priority 2011, dated 2019).
Like-named read-outs stand apart in the source and are kept apart here.

What was measured:
[1] = molecular target: T1, human FXR alpha ligand binding domain (Homo sapiens, UniProt Q96RI1); experiment: FRET activity assay (ligand mediated cofactor peptide interaction); format: biochemical
T1 construct: made in house; host or cells: E. coli BL21(DE3), vector pDEST15
T1 sequence (Q96RI1 187-472 isoform Q96RI1-2): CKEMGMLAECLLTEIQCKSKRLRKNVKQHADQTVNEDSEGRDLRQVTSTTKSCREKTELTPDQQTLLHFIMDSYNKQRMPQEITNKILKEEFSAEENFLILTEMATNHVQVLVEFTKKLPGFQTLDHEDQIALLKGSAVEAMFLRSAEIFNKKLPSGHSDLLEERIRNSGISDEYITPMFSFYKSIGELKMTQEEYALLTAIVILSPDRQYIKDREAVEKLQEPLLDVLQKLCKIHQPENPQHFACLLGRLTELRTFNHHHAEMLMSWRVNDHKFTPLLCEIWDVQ
Protocol: Determination of a ligand mediated cofactor peptide interaction to quantify ligand binding to the nuclear receptor FXR was performed as follows: Preparation of human FXR alpha ligand binding domain: The human FXRalpha LBD was expressed in E. coli strain BL21(DE3) as an N-terminally GST tagged fusion protein. The DNA encoding the FXR ligand binding domain was cloned into vector pDEST15 (Invitrogen). Expression was under control of an IPTG inducible T7 promoter. The amino acid boundaries of the ligand binding domain were amino acids 187-472 of Database entry NM_005123 (RefSeq). Expression and purification of the FXR-LBD: An overnight preculture of a transformed E. coli strain was diluted 1:20 in LB-Ampicillin medium and grown at 30° C. to an optical density of OD600=0.4-0.6. Gene expression was then induced by addition of 0.5 mM IPTG. Cells were incubated an additional 6 h at 30° C., 180 rpm. Cells were collected by centrifugation (7000×g, 7 min, rt). Per liter of original cell culture, cells were resuspended in 10 mL lysis buffer (50 mM Glucose, 50 mM Tris pH 7.9, 1 mM EDTA and 4 mg/mL lysozyme) and left on ice for 30 min. Cells were then subjected to sonication and cell debris removed via centrifugation (22000×g, 30 min, 4° C.). Per 10 mL of supernatant 0.5 mL prewashed Glutathione 4B sepharose slurry (Qiagen) was added and the suspension kept slowly rotating for 1 h at 4° C. Glutathione 4B sepharose beads were pelleted by centrifugation (2000×g, 15 sec, 4° C.) and washed twice in wash buffer (25 mM Tris, 50 mM KCl, 4 mM MgCl2 and 1M NaCl). The pellet was resuspended in 3 mL elution buffer per liter of original culture (elution buffer: 20 mM Tris, 60 mM KCl, 5 mM MgCl2 and 80 mM glutathione added immediately prior to use as powder). The suspension was left rotating for 15 min at 4° C., the beads pelleted and eluted again with half the volume of elution buffer than the first time. The eluates were pooled and dialysed overnight in 20 mM Hepes buffer (pH 7.5) containing 60 mM KCl, 5 mM MgCl2 as well as 1 mM dithiothreitol and 10% (v/v) glycerol. The protein was analysed by SDS-Page.
The method measures the ability of putative ligands to modulate the interaction between the purified bacterial expressed FXR ligand binding domain (LBD) and a synthetic biotinylated peptide based on residues 676-700 of SRC-1 (LCD2, 676-700). The sequence of the peptide used was B-[…]-COOH where the N-terminus was biotinylated (B). The ligand binding domain (LBD) of FXR was expressed as fusion protein with GST in BL-21 cells using the vector pDEST15. Cells were lysed by sonication, and the fusion proteins purified over glutathione sepharose (Pharmacia) according to the manufacturers instructions. For screening of compounds for their influence on the FXR-peptide interaction, the Perkin Elmer LANCE technology was applied. This method relies on the binding dependent energy transfer from a donor to an acceptor fluorophor attached to the binding partner of interest. For ease of handling and reduction of background from compound fluorescence LANCE technology makes use of generic fluorophore labels and time resolved detection Assays were done in a final volume of 25 μL in a 384 well plate, in a Tris-based buffer (20 mM Tris-HCl pH 7.5; 60 mM KCl, 5 mM MgCl2; 35 ng/μL BSA), containing 20-60 ng/well recombinantly expressed FXR-LBD fused to GST, 200-600 nM N-terminally biotinylated peptide, representing SRC1 aminoacids 676-700, 200 ng/well Streptavidin-xIAPC conjugate (Prozyme) and 6-10 ng/well Eu W1024-antiGST (Perkin Elmer). DMSO content of the samples was kept at 1%. After generation of the assay mix and diluting the potentially FXR modulating ligands, the assay was equilibrated for 1 h in the dark at rt in FIA-plates black 384 well (Greiner). The LANCE signal was detected by a Perkin Elmer VICTOR2VTM Multilabel Counter. The results were visualized by plotting the ratio between the emitted light at 665 and 615 nm. […]

[2] = molecular target: T2, FXR ligand binding domain (Homo sapiens, UniProt Q96RI1); experiment: Mammalian One Hybrid (M1H) assay, Gal4 reporter in HEK293 cells; format: cell-based
T2 construct: expressed in transfected cells; host or cells: HEK293 (DSMZ), transient transfection with a pCMV-BD construct
T2 sequence (Q96RI1 187-472 isoform Q96RI1-2): T1 sequence (Q96RI1 187-472 isoform Q96RI1-2)
Protocol: Determination of a ligand mediated Gal4 promoter driven transactivation to quantify ligand binding mediated activation of FXR was performed as follows: The cDNA part encoding the FXR ligand binding domain was cloned into vector pCMV-BD (Stratagene) as a fusion to the yeast GAL4 DNA binding domain under the control of the CMV promoter. […] The plasmid pFR-Luc (Stratagene) was used as the reporter plasmid, containing a synthetic promoter with five tandem repeats of the yeast GAL4 binding sites, driving the expression of the Photinus pyralis (American firefly) luciferase gene as the reporter gene. In order to improve experimental accuracy the plasmid pRL-CMV (Promega) was cotransfected. pRL-CMV contains the constitutive CMV promoter, controlling the expression of the Renilla reniformis luciferase. All Gal4 reporter gene assays were done in HEK293 cells (obtained from DSMZ, Braunschweig, Germany) grown in MEM with L-Glutamine and Earle's BSS supplemented with 10% fetal bovine serum, 0.1 mM nonessential amino acids, 1 mM sodium pyruvate, and 100 units Penicillin/[…] per mL at 37° C. in 5% CO2. Medium and supplements were obtained from Invitrogen. For the assay, […] were plated per well in 96 well plates in 100 μL per well MEM without Phenol Red and L-Glutamine and with Earle's BSS supplemented with 10% charcoal/dextran treated FBS (HyClone, South Logan, Utah), 0.1 mM nonessential amino acids, 2 mM glutamine, 1 mM sodium pyruvate, and 100 units Penicillin/[…] per mL, incubated at 37° C. in 5% CO2. The following day the cells were >90% confluence. […] MEM with the same composition as used for plating cells was added 2-4 h after addition of transfection mixture. Then compound stocks, prediluted in MEM were added (final vehicle concentration not exceeding 0.1%). […] All experiments were done in triplicates.

[3] = FXR-LBD/SRC-1 peptide interaction, LANCE, read-out: EC50 (Group), FRET activity assay
[4] = Gal4-FXR LBD transactivation, HEK293 cells, read-out: EC50 potency range (Group), M1H assay

SMILES | EC50 [1, 3] | EC50 [2, 4] | EC50 [1] | EC50 [2]
Cc1cc(C2CC(O)(c3ccc(OCc4c(-c5c(Cl)cccc5Cl)noc4C4CC4)cc3Cl)C2)cc(C)c1C(=O)O (single isomer, unassigned) [13/2] | > 100 nM | > 100 nM |  | 
COc1ccc(C(=O)O)cc1C1CC(O)(c2ccc(OCc3c(-c4c(Cl)cccc4Cl)noc3C3CC3)cc2Cl)C1 (single isomer, unassigned) [13/3] | 25 to 100 nM | 25 to 100 nM |  | 
Cc1ccc(C(=O)O)cc1C1CC(O)(c2ccc(OCc3c(-c4c(Cl)cccc4Cl)noc3C3CC3)cc2Cl)C1 (single isomer, unassigned) [13/4] | 25 to 100 nM | < 25 nM |  | 
Cc1cc(C(=O)O)cc(C2CC(O)(c3ccc(OCc4c(-c5c(Cl)cccc5Cl)noc4C4CC4)cc3Cl)C2)c1 (single isomer, unassigned) [13/5] | 25 to 100 nM | < 25 nM |  | 
Cc1ccc(C2CC(O)(c3ccc(OCc4c(-c5c(Cl)cccc5Cl)noc4C4CC4)cc3Cl)C2)cc1C(=O)O (single isomer, unassigned) [13/6] | > 100 nM | < 25 nM |  | 
O=C(O)c1cccc(N2CC(O)(c3ccc(OCc4c(-c5c(Cl)cccc5Cl)noc4C4CC4)cc3Cl)C2)c1 (single isomer, unassigned) [13/7] | 25 to 100 nM | 25 to 100 nM |  | 
O=C(O)c1cncc(N2CC(O)(c3ccc(OCc4c(-c5c(Cl)cccc5Cl)noc4C4CC4)cc3Cl)C2)c1 (single isomer, unassigned) [13/8] | < 25 nM | > 100 nM |  | 
O=C(O)c1ccnc(N2CC(O)(c3ccc(OCc4c(-c5c(Cl)cccc5Cl)noc4C4CC4)cc3Cl)C2)c1 (single isomer, unassigned) [13/9] |  |  | < 25 nM | > 100 nM
O=C(O)c1ccc(C2CC(O)(c3ccc(OCc4c(-c5c(Cl)cccc5Cl)noc4C4CC4)cc3Cl)C2)cc1 (single isomer, unassigned) [Example 13/1] | 25 to 100 nM | 25 to 100 nM |  | 
CC(C)n1nc(C(=O)NCCS(=O)(=O)O)cc1C1CC(O)(c2ccc(OCc3c(-c4c(Cl)cccc4Cl)noc3C3CC3)cc2Cl)C1 (stereo not shown) [14/2] | < 25 nM |  |  | 
COC(=O)c1cccc([C@H]2C[C@](O)(c3ccc(OCc4c(-c5c(Cl)cccc5Cl)noc4C4CC4)cc3Cl)C2)c1 [Example 1, Methyl 3-((1s,3s)-3-(2-chloro-4-((5-cyclopropyl-3-(2,6-dichlorophenyl)isoxazol-4-yl)methoxy)phenyl)-3-hydroxycyclobutyl)benzoate] | 25 to 100 nM | > 100 nM |  | 
O=C(O)c1cccc([C@H]2C[C@](O)(c3ccc(OCc4c(-c5c(Cl)cccc5Cl)noc4C4CC4)cc3Cl)C2)c1 [Example 2, 3-((1s,3s)-3-(2-Chloro-4-((5-cyclopropyl-3-(2,6-dichlorophenyl)isoxazol-4-yl)methoxy)phenyl)-3-hydroxycyclobutyl)benzoic Acid] | 25 to 100 nM | 25 to 100 nM |  | 
CS(=O)(=O)NC(=O)c1cccc([C@H]2C[C@](O)(c3ccc(OCc4c(-c5c(Cl)cccc5Cl)noc4C4CC4)cc3Cl)C2)c1 [Example 4, 3-((1s,3s)-3-(2-Chloro-4-((5-cyclopropyl-3-(2,6-dichlorophenyl)isoxazol-4-yl)methoxy)phenyl)-3-hydroxycyclobutyl)-N-(methylsulfonyl)benzamide] | < 25 nM | > 100 nM |  | 
NS(=O)(=O)c1cccc(C2CC(O)(c3ccc(OCc4c(-c5c(Cl)cccc5Cl)noc4C4CC4)cc3Cl)C2)c1 (stereo not shown) [Example 5, 3-(3-(2-Chloro-4-((5-cyclopropyl-3-(2,6-dichlorophenyl)isoxazol-4-yl)methoxy)phenyl)-3-hydroxycyclobutyl)benzenesulfonamide] | 25 to 100 nM | > 100 nM |  | 
CS(=O)(=O)c1cccc(C2CC(O)(c3ccc(OCc4c(-c5c(Cl)cccc5Cl)noc4C4CC4)cc3Cl)C2)c1 (stereo not shown) [Example 6, 1-(2-Chloro-4-((5-cyclopropyl-3-(2,6-dichlorophenyl)isoxazol-4-yl)methoxy)phenyl)-3-(3-(methylsulfonyl)phenyl)cyclobutanol] | 25 to 100 nM | > 100 nM |  | 
CC(C)n1nc(C(=O)O)cc1[C@H]1C[C@](O)(c2ccc(OCc3c(-c4c(Cl)cccc4Cl)noc3C3CC3)cc2Cl)C1 [Example 8, 5-((1s,3s)-3-(2-Chloro-4-((5-cyclopropyl-3-(2,6-dichlorophenyl)isoxazol-4-yl)methoxy)phenyl)-3-hydroxycyclobutyl)-1-isopropyl-1H-pyrazole-3-carboxylic Acid] | < 25 nM | 25 to 100 nM |  | 
CC(C)n1nc(C(=O)O)cc1[C@H]1C[C@@](O)(c2ccc(OCc3c(-c4c(Cl)cccc4Cl)noc3C3CC3)cc2Cl)C1 [Example 8A, 5-((1r,3r)-3-(2-Chloro-4-((5-cyclopropyl-3-(2,6-dichlorophenyl)isoxazol-4-yl)methoxy)phenyl)-3-hydroxycyclobutyl)-1-isopropyl-1H-pyrazole-3-carboxylate] | 25 to 100 nM | 25 to 100 nM |  | 
Cn1nc(C(=O)O)c2ccc(C3CC(O)(c4ccc(OCc5c(-c6c(Cl)cccc6Cl)noc5C5CC5)cc4Cl)C3)cc21 (stereo not shown) [Example 10, 6-(3-(2-Chloro-4-((5-cyclopropyl-3-(2,6-dichlorophenyl)isoxazol-4-yl)methoxy)phenyl)-3-hydroxycyclobutyl)-1-methyl-1H-indazole-3-carboxylic Acid] | < 25 nM | 25 to 100 nM |  | 
CC(C)n1nc(C(=O)NCC(=O)O)cc1C1CC(O)(c2ccc(OCc3c(-c4c(Cl)cccc4Cl)noc3C3CC3)cc2Cl)C1 (stereo not shown) [Example 14/1] | < 25 nM | > 100 nM |  | 
